Results on 59 compounds are retold here after patent US20180319865A1, “Identification of Novel Small Molecule Beta2 Integrin Agonists” (Rush University Medical Center, priority 2016, published 2018).

The EC50 is the concentration that produces a half-maximal response. A lower EC50 goes with an effect from little substance.

In this test the target is T1, mutant integrin CD11bE320A/CD18 (Homo sapiens, UniProt P11215, E336A).
T1 construct: expressed in transfected cells; host or cells: K562 (ATCC)
Put plainly: HTS cell adhesion assay, K562 E320A cells on immobilized fibrinogen. The test is classed as cell-based. The note with it: Table 3, adhesion to fibrinogen, five point dose-response. The procedure:
K562 cells stably expressing CD11c/CD18 (K562 CD11c/CD18) were generated similarly. […] K562 cells stably transfected with mutant integrin CD11bE320A/CD18 (K562 E320A) were generated according to literature protocols. All cell lines were maintained in Iscove's Modified Dulbecco's Medium (IMDM) supplemented with 10% heat-inactivated fetal bovine serum, 50 IU/mL penicillin and streptomycin and 0.5 mg/mL G418.
Cell adhesion assays with immobilized ligands were performed using the general protocol previously described and as illustrated in FIG. 1 [33]. Assays with all different K562 cell lines (K562, K562 CD11b/CD18, K562 CD11c/CD18 and K562 E320A) were performed in an identical fashion. Briefly, 384-well microplates (Corning 3700) were coated with 15 μg/mL fibrinogen (Fg) ligand in PBS^++ overnight at 4° C. At the same time, anti-CD18 (IB4) mAb was also coated. Subsequently, the coated wells were washed with 1% nonfat milk in TBS at room temperature for 1 hour. Next, the wells were washed 3 times with TBS, and the coated microplates were used in the HTS assays.
K562 CD11b/CD18, K562 CD11bE320A/CD18 and K562 CD11c/CD18 cells were washed with TBS, and cells were transferred to the Fg-coated wells of microplates in the assay buffer (Ca^2+ and Mg^2+ for physiological condition, Mn^2+ as the Positive control). A 1 μL aliquot of the compounds were transferred to each washed well with multichannel pipet from the 384-well plates.
The assay plates were incubated at 37° C. in the presence of small-molecule compounds for 30 min. To dislodge the non-adherent cell, the assay plates were gently inverted and kept in inverted position for 20 min at room temperature.
The cells were fixed with 37% formaldehyde in a small volume and the plates were kept inverted for 1 h. Upon the fixation, the solutions in the well were discarded. Next, the cells were fluorescently labeled with DAPI (0.5 μM final in TBS with 0.1% Triton X-100) and the quantitated with “Opera High Content Screening System” (Perkin Elmer).
Cell-adhesion under positive and negative control conditions was used to define the activity scale; signal corresponding to the number of non-small molecule treated cells adherent in activating buffer condition (in the presence of Mn^2+ ions as agonist, PC) was considered maximum (100% binding) and the signal corresponding to the number of non-small molecule treated cells adherent in basal buffer condition (in the presence of 1 mM each of Ca^2+ and Mg^2+, NC) was considered minimum (0% binding).

T1 sequence (P11215 17-1152 E336A): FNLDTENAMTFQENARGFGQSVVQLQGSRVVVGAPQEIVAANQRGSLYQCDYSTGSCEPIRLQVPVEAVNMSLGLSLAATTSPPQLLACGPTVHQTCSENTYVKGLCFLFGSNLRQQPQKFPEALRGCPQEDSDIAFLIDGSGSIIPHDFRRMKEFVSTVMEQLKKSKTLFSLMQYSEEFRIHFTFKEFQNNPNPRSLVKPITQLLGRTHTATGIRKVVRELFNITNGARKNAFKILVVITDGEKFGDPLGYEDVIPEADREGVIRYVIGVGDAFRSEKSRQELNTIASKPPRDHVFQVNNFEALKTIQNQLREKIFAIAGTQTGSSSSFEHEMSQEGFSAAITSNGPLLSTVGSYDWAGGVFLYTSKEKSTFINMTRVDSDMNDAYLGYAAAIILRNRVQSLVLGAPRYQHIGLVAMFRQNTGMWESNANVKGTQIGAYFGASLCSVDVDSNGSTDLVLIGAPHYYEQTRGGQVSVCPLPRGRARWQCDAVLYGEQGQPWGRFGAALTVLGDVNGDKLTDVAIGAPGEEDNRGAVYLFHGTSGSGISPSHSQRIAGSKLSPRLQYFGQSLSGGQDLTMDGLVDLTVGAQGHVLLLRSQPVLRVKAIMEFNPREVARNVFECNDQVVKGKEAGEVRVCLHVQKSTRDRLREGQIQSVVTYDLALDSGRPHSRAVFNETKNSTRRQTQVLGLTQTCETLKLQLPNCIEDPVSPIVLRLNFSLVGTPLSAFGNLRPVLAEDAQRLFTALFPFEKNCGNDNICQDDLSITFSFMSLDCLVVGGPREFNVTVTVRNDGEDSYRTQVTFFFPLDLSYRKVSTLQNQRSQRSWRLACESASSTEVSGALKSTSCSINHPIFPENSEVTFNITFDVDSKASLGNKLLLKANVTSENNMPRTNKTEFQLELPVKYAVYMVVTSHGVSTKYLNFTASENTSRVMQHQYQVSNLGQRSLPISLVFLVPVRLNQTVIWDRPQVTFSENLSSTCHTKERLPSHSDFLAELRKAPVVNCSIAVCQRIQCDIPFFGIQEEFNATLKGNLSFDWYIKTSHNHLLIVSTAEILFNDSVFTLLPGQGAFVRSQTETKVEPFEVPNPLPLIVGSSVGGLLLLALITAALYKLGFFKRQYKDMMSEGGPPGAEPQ
T1 sequence (P05107 23-769 partner): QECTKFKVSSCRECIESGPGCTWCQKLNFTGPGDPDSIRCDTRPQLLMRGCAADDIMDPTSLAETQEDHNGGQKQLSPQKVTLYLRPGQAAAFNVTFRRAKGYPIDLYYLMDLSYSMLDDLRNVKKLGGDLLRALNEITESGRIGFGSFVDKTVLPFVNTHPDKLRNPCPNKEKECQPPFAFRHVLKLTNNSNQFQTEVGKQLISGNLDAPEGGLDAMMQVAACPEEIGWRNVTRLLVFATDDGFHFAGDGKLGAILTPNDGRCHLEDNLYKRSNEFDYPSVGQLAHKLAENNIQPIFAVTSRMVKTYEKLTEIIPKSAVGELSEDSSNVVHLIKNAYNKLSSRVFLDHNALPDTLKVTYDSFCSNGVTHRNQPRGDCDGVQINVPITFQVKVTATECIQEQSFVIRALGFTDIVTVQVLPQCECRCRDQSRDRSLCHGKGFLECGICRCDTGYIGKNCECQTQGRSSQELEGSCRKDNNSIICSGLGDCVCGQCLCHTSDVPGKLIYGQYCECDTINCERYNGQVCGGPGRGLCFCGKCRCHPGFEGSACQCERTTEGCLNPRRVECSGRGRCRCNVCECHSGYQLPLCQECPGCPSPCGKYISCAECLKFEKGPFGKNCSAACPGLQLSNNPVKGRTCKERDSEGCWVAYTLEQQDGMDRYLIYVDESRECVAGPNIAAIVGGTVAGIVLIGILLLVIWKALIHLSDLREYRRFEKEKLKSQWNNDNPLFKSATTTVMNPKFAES

Regarding `O=C(Nc1nc2c(s1)CCCC2)c1cc(-c2ccncc2)nc2ccccc12` [Compound 2462581], the EC50 is 12.6 µM.
Turning to `Cc1cc(C)cc(-n2c3nc4ccccc4nc3c3c(=O)n(Cc4ccco4)cnc32)c1` [Compound 660761], the EC50 was determined as 8.8 µM.
On the same count and under the same terms, under `CCC(=O)Nc1ccc(C(=O)CSc2nnc(-c3ccccc3F)n2C2CC2)cc1` [Compound 2448744] stands 21.8 µM; under `Cc1[nH]nc2ncc(C(=O)c3cc(Cl)cc(Cl)c3O)cc12` [Compound 2421294], 9.81 µM.
`COc1ccc(/C=c2\sc3nc(-c4ccccc4OC)nn3c2=O)c(OC)c1` [Compound 1827856] displayed a 50% effective concentration (EC50) of 7.03 µM.
The compound `COc1ccc(OC)c(NS(=O)(=O)Cc2ccccc2)c1` [Compound 743624] came in with an EC50 of 15.7 µM.
Still for that read-out and setting: as for `Cc1ccc(CN2C(=O)C3CCCN3c3ccc(S(=O)(=O)N4CCOCC4)cc32)cc1` (centres unmarked) [Compound 2766156], the figure is 10.7 µM; as for `Cc1csc(NC(=O)c2cc(-c3ccco3)nc3ccccc23)n1` [Compound 2366866], 8.59 µM.
In the case of `O=[N+]([O-])c1ccc(-c2ccc(/C=N/c3c(-c4ccco4)nc4ccccn34)o2)c(Cl)c1` [Compound 9617832], the midpoint of the response, the EC50, lay at 11.7 µM.
As for `COc1ccc2nc(O)c(CN(C3CCCCC3)C(c3nnnn3Cc3ccco3)C(C)C)cc2c1` (centres unmarked) [Compound 650199], the response was half-maximal at 13.3 µM (EC50).
Take `Cc1cc(C=C2C(=O)N(C)C(=S)N(C)C2=O)c(C)n1C1CCCCC1` [Compound 1347165]: the EC50 came to 171 µM.
Still for that read-out and setting: under `CCCCN1C(=O)/C(=C/c2ccc(N3CCCCCC3)cc2)C(=O)NC1=S` [Compound 2067755] stands 78.3 µM; under `O=C(NNC(=O)c1cccc(S(=O)(=O)N2CCN(c3ccccc3)CC2)c1)c1ccc(Cl)cc1` [Compound 4412067], 11.4 µM; under `COc1cc2c(cc1NC(=O)c1cc(-c3ccncc3)nc3ccccc13)oc1ccccc12` [Compound 2098333], 0.441 µM.
On to `COc1cc(/C=C2/SC(=S)N(c3ccccc3)C2=O)ccc1Oc1nc(N2CCOCC2)nc(N2CCOCC2)n1` [Compound 5343920], for which the “EC50 E320A” value is on record as “Very Low”.
The compound `NC(=O)c1cc(-c2ccccc2)sc1NC(=O)Cc1ccc(S(=O)(=O)N2CCOCC2)s1` [Compound 2121076] yielded an EC50 of 19.4 µM.
The compound `Cc1nn2c(-c3cccc(NC(=O)CSc4nc5ccccc5o4)c3)nnc2c2ccccc12` [Compound 1290769] showed a concentration giving a half-maximal response (EC50) of 7.82 µM.
`CC1CCN(Cc2ccc(NC(=O)C3CCN(c4nnc(-n5cccc5)s4)CC3)cc2)CC1` [Compound 5309189] showed an EC50 of 14.2 µM.
In turn, `CC(=O)c1cccc(NC(=O)Nc2cc3sccc3n2C)c1` [Compound 5307308] showed an EC50 of 18.7 µM.
Same read-out and setting: under `Cc1ccc(-c2cc(C(=O)Nc3ccc(S(=O)(=O)Nc4nccs4)cc3)c3ccccc3n2)c(C)c1` [Compound 1358622] stands 13.7 µM; under `CC1CCc2c(sc(NC(=O)c3ccc(Cn4cc(Br)cn4)o3)c2C(N)=O)C1` (centres unmarked) [Compound 2941732], 35.6 µM.
`NC(=S)N/N=C/c1coc2cc(Cl)ccc2c1=O` [Compound 6879466] registered an EC50 of 171 µM.
On to `N#Cc1cccc(NC(=O)CSc2ccc3c4c(cccc24)C(=O)c2ccccc2-3)c1` [Compound 4835204], for which the “EC50 E320A” value is listed as “Infinite”.
The compound `Cc1ccc2sc(-c3ccc(NC(=O)CCN4C(=O)c5ccccc5C4=O)cc3)nc2c1` [Compound 1193278] showed an EC50 of 5.17 µM.
Same read-out and setting: under `Cc1ccc(C)c(N(CC(=O)N/N=C/c2ccc(-c3ccc([N+](=O)[O-])cc3)o2)S(=O)(=O)c2ccccc2)c1` [Compound 5334671] stands 16.9 µM; under `N#Cc1ccsc1NC(=O)CSc1ncnc2ccccc12` [Compound 2369720], 11.3 µM.
In turn, `N#Cc1ccc(CSc2nnc(NC(=O)C3CC(=O)N(c4ccc5c(c4)OCCO5)C3)s2)cc1` (centres unmarked) [Compound 4831224] registered a half-maximal effective concentration (EC50) of 11.1 µM.
On the same count and under the same terms, under `Cc1cc(C)cc(NC(=O)Cn2c(=O)oc3cc(S(=O)(=O)N4CCC(C)CC4)ccc32)c1` [Compound 9551541] stands 8.23 µM; under `CCN(CC)c1ccc(C(=O)OCC(=O)Nc2cc3oc4ccccc4c3cc2OC)cc1` [Compound 2078838], 72.4 µM.
`CCN(CC)C(=O)c1sc(NC(=O)c2cc(-c3ccc(C)s3)nc3ccccc23)c(C(=O)OC)c1C` [Compound 1219756]: the concentration giving a half-maximal response (EC50) was 9.94 µM.
`COc1ccc(C2C(C(C)=O)=C(C)N=c3s/c(=C/c4ccc5c(c4)OCO5)c(=O)n32)cc1` (centres unmarked) [Compound 5287341] displayed a concentration for a half-maximal effect (EC50) of 8.98 µM.
With `O=C1c2cccc(OCC(=O)N3N=C(c4cccs4)CC3c3ccc(F)cc3)c2CCN1Cc1cccnc1` (centres unmarked) [Compound 4168394], a half-maximal response (EC50) required 8.85 µM.
Same read-out and setting: as for `CC(C)c1nnc(NC(=O)c2c(O)c3cccc4c3n(c2=O)CCC4)s1` [Compound 54680928], the figure is 16.1 µM.
`COC(=O)/C(=C1/Oc2cc3c(cc2S1)OCO3)C(F)(F)F` [Compound 3237460] yielded a half-maximal effective concentration (EC50) of 135 µM.
The compound `COc1ccc(-n2c(SCC(=O)Nc3nccs3)nc3sc4c(c3c2=O)CCN(C)C4)cc1` [Compound 664564] had a 50% effective concentration (EC50) of 20.4 µM.
As for `Cc1ccnc(N/C=C(\C#N)c2nc(-c3cccc(Br)c3)cs2)c1` [Compound 1352154], the concentration for a half-maximal effect (EC50) came out at 8.01 µM.
Regarding `O=C(N/N=C\C=C\c1ccco1)c1cc(-c2ccc3ccccc3c2)[nH]n1` [Compound 6030986], the 50% effective concentration (EC50) is 8.1 µM.
Compound `CCOC(=O)c1sc(NC(=O)CSc2nnnn2-c2ccccc2)c(C(=O)OCC)c1C` [Compound 2132989] returned an EC50 of 18 µM.
Same read-out and setting: under `O=C(CN1CCc2ccccc21)Nc1ccc2c(c1)OCO2` [Compound 2064203] stands 8.97 µM; under `CCn1c(COc2ccc3c(c2)CCCC3)nnc1SCC(=O)Nc1ccc(C(=O)OC)cc1` [Compound 2958500], 8.94 µM.
The same measure, in the same setting: under `COc1ccccc1N1CSC2=C(C#N)C(c3ccc(SC)cc3)CC(=O)N2C1` (centres unmarked) [Compound 3160888] stands 11.4 µM.
Compound `COc1cccc2cc(/C(C)=N/Nc3nc(-c4cc(C)ccc4C)cs3)c(=O)oc12` [Compound 9594695] gave a 50% effective concentration (EC50) of 17.5 µM.
Turning to `COc1ccc2cc(/C=N/NC(=O)c3ccc(CN(c4ccc(C)c(C)c4)S(C)(=O)=O)cc3)c(Cl)nc2c1` [Compound 9564362], a half-maximal effect (EC50) was put at 12.2 µM.
Compound `COc1ccc(C(=O)Nc2ccc(N3CCCC3)cc2)cc1` [Compound 960708] showed an EC50 of 101 µM.
The same measure, in the same setting: under `O=C(Nc1ccc2nn(-c3ccccc3)nc2c1)c1ccc2c(c1)OCO2` [Compound 2208079] stands 568 µM.
Compound `O=c1nc2s/c(=C\c3ccco3)c(=O)n2nc1Cc1ccc(F)cc1` [Compound 1844411] showed a concentration for a half-maximal effect (EC50) of 7.04 µM.
`CCOC(=O)C1CCN(S(=O)(=O)c2ccc(-c3nc4ccccc4s3)s2)CC1` [Compound 3241379] registered a 50% effective concentration (EC50) of 12.6 µM.
For `CCCC(=O)Nc1ccc(-c2cnc(-c3ccc(NC(=O)CCC)cc3)nc2)cc1` [Compound 1272696], the “EC50 E320A” value was “Infinite”.
Compound `Cc1nc2c(c(=O)n1CCC1=CCCCC1)c1nc3ccccc3nc1n2/N=C/c1ccco1` [Compound 6880170] displayed an EC50 of 11.3 µM.
`C=CCN(CC=C)S(=O)(=O)c1ccc(C(=O)Nc2sc3c(c2C(N)=O)CCCCC3)cc1` [Compound 3395368] returned a half-maximal effective concentration (EC50) of 8.78 µM.
In the case of `Cc1ccc2nc3sc(C(=O)Nc4ccc(N5CCOCC5)cc4)c(N)c3cc2c1` [Compound 1442651], the EC50 was determined as 10.8 µM.
`CCOc1ccc(-c2nnc3ccc(SCC(=O)Nc4nc5ccc(C)cc5s4)nn23)cc1` [Compound 12005911] yielded a 50% effective concentration (EC50) of 12.1 µM.
`Cc1sc2nc(CSc3nc4ccccc4c(=O)n3CCCN3CCOCC3)[nH]c(=O)c2c1C` [Compound 2566737] gave a half-maximal effective concentration (EC50) of 8.42 µM.
`CSc1nc(NCCOCCO)c2sc3nc(-c4ccco4)c4c(c3c2n1)CCC4` [Compound 665043] gave an EC50 of 9.23 µM.
Same read-out and setting: under `COCCNC(=S)N/N=C/c1ccc(OCc2ccc(C(=O)OC)cc2)cc1` [Compound 6892710] stands 12.4 µM; under `Cc1ccc(-n2c(=O)c(C#N)cc3c(=O)n4cccc(C)c4nc32)cc1` [Compound 9550569], 8.22 µM; under `COc1ccc(N(CC(=O)N/N=C/c2ccc(-c3ccc([N+](=O)[O-])cc3)o2)S(=O)(=O)c2ccc(C)cc2)cc1` [Compound 5334631], 13 µM.
In the case of `O=C(Nc1ccc(Br)cc1Cl)c1cnccn1` [Compound 1245695], the midpoint of the response, the EC50, lay at 8.47 µM.
`COc1ccc2c(c1)c1nc3ccccc3nc1n2Cc1ccc(OC)c(OC)c1` [Compound 2023256] registered a concentration giving a half-maximal response (EC50) of 26.1 µM.
